Laboratory results from patent US11207424B2, “Methods and materials for increasing viral vector infectivity” (Mayo Foundation for Medical Education and Research, priority 2014, dated 2021).
Where two headings read alike, the source gives them in different places.

Columns and labels:
[1] = test system: primary porcine hepatocytes; assay: AAV2 or AAV9 CMV-Luc transduction of primary porcine hepatocytes, luciferase; assay type: cell-based; conditions: porcine hepatocytes, 0, 2 or 20 nM after 8 hours infection, 48 hours p.i.
Procedure: FIG. 24 contains graphs plotting the relative luciferase activity in porcine hepatocytes exposed to AAV2 or AAV9 CMV-Luc vectors. Cells were infected with AAV vectors for 8 hours, virus was then removed, and cells were treated with 0, 2, or 20 nM meayamycin B. Cells were harvested 48 hours p.i. for the luciferase assay.
(§1) The ability of meayamycin B to boost AAV transduction in various cell types, relevant to gene therapy applications, was also tested. First, primary pancreatic islets were isolated from 8 week-old C57B1/6 mice, which were then transduced with AAV8 CMV-GFP and treated with 2 nM meayamycin B 3 hours p.i. Cells were monitored by BioStation Live Imaging for three days. […] (FIG. 21). The effects of meayamycin B on primary human pancreatic islets were then tested. Cells were infected with AAV2 or AAV9 CMV-Luc vectors and treated with 0, 2, 5, or 20 nM meayamycin B at 7 hours p.i. When luciferase expression was monitored at 48 hours p.i., a dose-dependent increase in luciferase expression in AAV2 and AAV9 infected cells (up to 44- and 24-fold increases in AAV9 and AAV2 transduction) was observed (FIG. 22). The effects on neonatal rat cardiomyocytes were tested next. Primary cardiomyocytes were infected with AAV2 CMV-Luc, followed by 0, 2, or 10 nM meayamycin B treatments at 3 hours post infection for 3 days. […] (FIG. 23).

[2] = test system: HeLa cells; assay type: cell-based; conditions: for increase in relative luciferase activity: 48 hours p.i.
[3] = test system: primary pancreatic islets; assay: AAV8 CMV-GFP transduction of primary mouse pancreatic islets, live imaging; assay type: cell-based, C57B1/6 mice; conditions: 2 nM at 3 hours p.i., 48 and 72 hours p.i.
Procedure: FIG. 21 contains photographs of murine islet cells exposed to AAV8-GFP vectors along with meayamycin (2 nM). Images of GFP expressing islets were taken at two and three days post infection.
as §1

[4] = test system: HeLa cells; assay: GFP-expressing single-stranded AAV9 or scAAV9 vector transduction of HeLa cells, flow cytometry; assay type: cell-based; conditions: AAV9 CMV-GFP or scAAV9 CMV-GFP, 20 nM at 8 hours p.i., 48 hours p.i.
Procedure: FIG. 20 contains flow cytometry data plotting the infectivity of GFP-expressing single-stranded AAV9 or self-complementary (sc) AAV9 vectors. HeLa cells were infected by AAV9 CMV-GFP or scAAV9 CMV-GFP vectors, followed by treatment with 20 nM meayamycin B at 8 hours p.i. Flow cytometry analysis was performed to observe GFP-positive cell populations at 48 hours p.i.
To understand the mechanism of U2 snRNP-mediated block of AAV vector transduction, the optimal timing of meayamycin B treatment in relationship to AAV infection was further assessed. Pretreatment with the drug was not needed in order for it to enhance AAV9 infection (FIG. 18). […] To further map the optimal timing of U2 snRNP inhibition for AAV vector transduction, AAV2 and AAV9 vector-infected HeLa cells were treated with 5 nM meayamycin B at various time points and duration, and luciferase activity was assessed at 3 days p.i. […] In contrast, the effects of meayamycin B on AAV vector transduction were impaired when drug was added either 24 or 48 hours p.i. (FIG. 19). Thus, optimal enhancement of AAV vector transduction involved initiation of U2 snRNP inhibition prior to 24 hours post AAV vector infection.

[5] = test system: primary human pancreatic islets; assay: AAV2 or AAV9 CMV-Luc transduction of primary human pancreatic islets, luciferase; assay type: cell-based; conditions: human islets, 0, 2, 5 or 20 nM at 7 hours p.i., 48 hours p.i.
Procedure: FIG. 22 contains graphs plotting relative light units in human islet cells 48 hours post infection with an AAV2 or AAV9 vector and following treatment with the indicate amount of meayamycin at 7 hours post infection. Luciferase expression was analyzed 48 hours p.i.
as §1

[6] = test system: cancer cell lines and clinically relevant cell types, including pancreatic islets and hepatocytes; assay: Summary statement: AAV vector transduction of cancer cell lines and clinically relevant cell types; assay type: cell-based; conditions: summary over cell types
Description: Thus, genetic and/or pharmacological inhibition of U2 snRNP can be used to increase AAV vector transduction, which allows for efficient AAV vector gene therapy with reduced vector doses.

[7] = test system: neonatal rat cardiomyocytes; assay: AAV2 CMV-Luc or scAAV9 CMV-GFP transduction of neonatal rat cardiomyocytes; assay type: cell-based
Procedure: FIG. 23 presents a graph plotting the relative luciferase activity and images of GFP-expressing cells in neonatal rat cardiomyocytes. Primary cardiomyocytes were infected with AAV2 CMV-Luc or scAAV9 CMV-GFP vectors and treated with meayamycin B, 3 hours p.i. Luciferase activity was measured 3 days p.i., while GFP expression was monitored at 5 days p.i.
as §1

[8] = HeLa, 5 nM, drug 3 hours p.i., washed 1, 2 or 3 days after, luciferase at 3 days p.i.

`CC(/C=C/[C@H]1OC(C)(C)C[C@@]2(CO2)[C@@H]1O)=C\C[C@@H]1O[C@H](C)[C@H](NC(=O)/C=C\[C@H](C)OC(=O)N2CCOCC2)C[C@@H]1C` [meayamycin B] was tested, and the “increase in AAV2 vector transduction (luciferase)” value [1] was ≤ 18 fold, the “increase in AAV9 vector transduction (luciferase)” value [1] was “up to 57 fold” and the “increase in relative luciferase activity” value ([2]; HeLa cells pre-treated at increasing dose 3 hours before AAV9 vector infection) was “up to 49 fold”. The “increase in AAV2 vector transduction (luciferase)” value [2, 8] was “up to 380 fold”, the “increase in AAV9 vector transduction (luciferase)” value [2, 8] was ≤ 359 fold and the “increase in relative luciferase activity” value ([2]; HeLa, 20 nM, treated 9 hours post AAV9 vector infection) was 464 fold. The “effects on AAV vector transduction, late drug addition” value ([2]; HeLa, AAV2 and AAV9, drug added either 24 or 48 hours p.i.) was “impaired”, the “effect of washout on AAV vector transduction enhancement” value ([2]; HeLa, AAV2 and AAV9, washout for 48 hours after 3-24 hours of treatment) was “did not strongly compromise its effects on AAV vector transduction” and the “effect on relative luciferase activity” value ([2]; HeLa, AAV9, 20 nM, treatment at 33 hours p.i.) was “relatively weak effects”. For the same compound, the “GFP expressing cells in islets vs control islets” value [3] was “increased numbers of GFP expressing cells”, the “transduction by GFP-expressing vectors (number and fluorescent intensity of GFP-positive cells)” value [4] was “enhanced the transduction by both single-stranded and self-complementary AAV vectors” and the “increase in AAV2 transduction (luciferase expression)” value [5] was ≤ 24 fold. For the same compound, the “increase in AAV9 transduction (luciferase expression)” value [5] was “up to 44 fold”, the “increase in vector transduction” value [6] was “up to 1000 fold” and the “vector transduction (luciferase)” value ([7]; AAV2 CMV-Luc, 2 nM at 3 hours post infection for 3 days) was “did not strongly improve vector transduction”. For the same compound, the “increase in luciferase expression” value ([7]; AAV2 CMV-Luc, 10 nM at 3 hours post infection for 3 days) was 72 fold and the GFP expression ([7]; scAAV9 CMV-GFP, 10 nM, 5 days p.i.) was “notable increase in GFP expression”.
